What is called IC50 is the concentration that gives 50% inhibition. Read a high IC50 as weaker potency in that assay.

For 14 compounds, IC50 results are on record in patent US9493444B2 (Merck Patent GmbH, priority 2012, dated 2016).

The structures appear in SMILES notation. Bounds are passed on as bounds.

The experiment relates to Wnt pathway (TCF-dependent transcription in HEK293 luciferase reporter cell line with ER-DSH construct). Kind of experiment: Cellular assay for Wnt pathway activity (luciferase reporter). Particulars: Homo sapiens; Wnt pathway inhibition, HEK293 luciferase reporter cells (ER-DSH, TCF promoter), 24 hours incubation, estrogen-induced. The format is cell-based. In a few lines:
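Luminescent luciferase read-out after 24 h compound exposure at 1 nM to 30 μM, with TCF-driven transcription switched on by estrogen addition. IC50 values come from curve fits of data normalized against the vehicle-only control.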
On the technique in general: In a reporter assay the amount or activity of a reporter protein is the signal.
Compound `CC(=O)N(C)CCN(C)c1cncc(Oc2ccc(-c3ccc(CN(C)C(=O)CCCCCNC(=O)CCCCC4SCC5NC(=O)NC54)nc3)cc2)n1` (centres unmarked) [Compound 272, 6-[5-(2-Oxo-hexahydro-thieno[3,4-d]imidazol-6-yl)-pentanoyl-amino]-hexanoic acid {5-[4-(6-{[2-(acetyl-methyl-amino)-ethyl]-methyl-amino}-pyrazin-2-yloxy)-phenyl]-pyridin-2-ylmethyl}-methyl-amide] showed a half-inhibitory concentration (IC50) of less than 200 nM.

`CC(=O)N(C)CCN(C)c1cncc(Oc2ccc(-c3ccc(N=[N+]=[N-])cn3)cc2)n1` [Compound 273, N-[2-({6-[4-(5-Azido-pyridin-2-yl)-phenoxy]-pyrazin-2-yl}-methyl-amino)-ethyl]-N-methyl-acetamide] registered an IC50 of less than 200 nM. The result for `CC(=O)N(C)CCCc1cncc(Oc2ccc(-c3ccc([N+](=O)[O-])cn3)cc2F)n1` [Compound 274, N-(3-{6-[2-Fluoro-4-(5-nitro-pyridin-2-yl)-phenoxy]-pyrazin-2-yl}-propyl)-N-methyl-acetamide] reads 1000 to 10000 nM; that for `CC(=O)N(C)CCNc1cncc(Oc2ccc(-c3cncc(S(C)(=O)=O)c3)cc2)n1` [Compound 275, N-(2-{6-[4-(5-Methane-sulfonyl-pyridin-3-yl)-phenoxy]-pyrazin-2-ylamino}-ethyl)-N-methyl-acetamide], 1000 to 10000 nM; that for `CC(=O)N(C)CCNc1cncc(Oc2ccc(-c3ccc(C#N)nc3)cc2)n1` [Compound 276, N-(2-{6-[4-(6-Cyano-pyridin-3-yl)-phenoxy]-pyrazin-2-ylamino}-ethyl)-N-methyl-acetamide], 200 to 1000 nM.

Consider `O=C1OCCN1CCNc1cncc(Oc2ccc(F)cc2)n1` [Compound 277, 3-{2-[6-(4-Fluoro-phenoxy)-pyrazin-2-ylamino]-ethyl}-oxazolidin-2-one], for which the IC50 is 1000 to 10000 nM.

The compound `O=C1NCCN1CCNc1cncc(Oc2ccc(F)cc2)n1` [Compound 278, 1-{2-[6-(4-Fluoro-phenoxy)-pyrazin-2-ylamino]-ethyl}-imidazolidin-2-one] returned an IC50 of 200 to 1000 nM.

The compound `CC(=O)N(C)CCN(C)c1cncc(Oc2ccc(-c3cccnc3)c(F)c2F)n1` [Compound 279, N-(2-{[6-(2,3-Difluoro-4-pyridin-3-yl-phenoxy)-pyrazin-2-yl]-methyl-amino}-ethyl)-N-methyl-acetamide] came in with an IC50 of less than 200 nM.

For the compound `CC(=O)N(C)CCN(C)c1cncc(Oc2ccc(-c3ccc(N)nc3)c(F)c2F)n1` [Compound 280, N-[2-({6-[4-(6-Amino-pyridin-3-yl)-2,3-difluoro-phenoxy]-pyrazin-2-yl}-methyl-amino)-ethyl]-N-methyl-acetamide], the IC50 is less than 200 nM. `CN(CCN(C)S(C)(=O)=O)c1cncc(Oc2ccc(F)cc2)n1` [Compound 281, N-(2-{[6-(4-Fluoro-phenoxy)-pyrazin-2-yl]-methyl-amino}-ethyl)-N-methyl-methane-sulfonamide]: the 50% inhibitory concentration (IC50) is 1000 to 10000 nM. For `CC(=O)N(C)CCCc1cncc(Oc2ccc(-c3ccc(N)cn3)cc2F)n1` [Compound 282, N-(3-{6-[4-(5-Amino-pyridin-2-yl)-2-fluoro-phenoxy]-pyrazin-2-yl}-propyl)-N-methyl-acetamide], the half-maximal inhibitory concentration (IC50) was less than 200 nM. For `CN(CCC1(O)CCCC1)c1cncc(Oc2ccc(F)cc2)n1` [Compound 283, 1-(2-{[6-(4-Fluoro-phenoxy)-pyrazin-2-yl]-methyl-amino}-ethyl)-cyclopentanol] the value was 200 to 1000 nM; for `CN(CCN(C)c1cncc(Oc2ccc(F)cc2)n1)C(=O)CN` [Compound 284, 2-Amino-N-(2-{[6-(4-fluoro-phenoxy)-pyrazin-2-yl]-methyl-amino}-ethyl)-N-methyl-acetamide], 1000 to 10000 nM.

`CN(CCN(C)c1cncc(Oc2ccc(F)cc2)n1)C(=O)CN(C)C(=O)OC(C)(C)C` [Compound 285, {[(2-{[6-(4-Fluoro-phenoxy)-pyrazin-2-yl]-methyl-amino}-ethyl)-methyl-carbamoyl]-methyl}-methyl-carbamic acid tert-butyl ester]: the IC50 lay within 1000 to 10000 nM.
